Data published in patent publication US8741867B2, “Retinoid-liposomes for treating fibrosis” (Nitto Denko Corporation, priority 2011, dated 2014).
Like-named read-outs stand apart in the source and are kept apart here. d = 2'-deoxy (DNA); r = 2'-OH (RNA)

Tests used:
rat gp46 [1] = assay: Inhibition of gp46 expression by prepared siRNA in NRK cells (western blot); type: cell-based
Experimental: Normal rat kidney cells (NRK cells), which had rat gp46 and were fibroblasts producing collagen, were transfected with 0.1 nM to 50 nM siRNA and cultured for 12 to 48 hours (FIG. 1). The amount of expression of gp46 was checked by the western blot method (FIGS. 2 to 4, upper band corresponding to gp46, lower band corresponding to actin control). All of the siRNAs inhibited the expression of gp46 protein remarkably compared with a vehicle (FIG. 2).

[2] = tested on: rat fibroblasts (NRK cells); assay: Inhibition of collagen synthesis by siRNA (3H-proline, collagenase-sensitive fraction); type: cell-based; conditions: siRNA 50 nM, 48 hours, compared with control group
Experimental: In order to examine the amount of collagen synthesized, ^3H-proline was added to the culture supernatant of rat fibroblasts (NRK cells) under the above-mentioned conditions (siRNA concentration 50 nM, time 48 hours), and after transfection the amount of ^3H in secreted protein was examined (FIG. 5). The amount of collagen synthesized was calculated from the ratio of protein secreted in the supernatant to protein degraded by collagenase when culturing gp46siRNA-transfected fibroblasts in the presence of ^3H-proline in accordance with Peterkofsky et al., 1971 Biochemistry 10:988-94. Collagen synthesis ratio=collagenase−sensitive fraction×100(5.4×collagenase−insensitive fraction+collagenase−sensitive fraction)
The collagen synthesis ratio in rat fibroblasts decreased by about 40% compared with a control group (FIG. 6).

293_HSP47-GFP cell line [3] = tested on: 293_HSP47-GFP cell line
Experimental: (§2) Cells treated with or without siNA were measured for viability after 72 hours incubation using CellTiter-Glo Luminescent Cell Viability Assay Kit according to the manual (Promega). The readings were normalized to samples treated with scrambled siNA molecules.
(§3) The 293_HSP47-GFP and 293_GP46-GFP cell lines treated with siRNA against hsp47 and gp46 were evaluated for viability using the methods described in Example 2. The cell viability was normalized to cells treated with scrambled siRNA (Ambion).

human HSP47 = assay: Inhibitory efficiency of siHsp47 in 293_HSP47-GFP reporter cell line (GFP fluorescence); type: cell-based; conditions: 293_HSP47-GFP cell line, normalized to scrambled siRNA
Excerpt: (§1) The fluorescent signals were normalized to fluorescent signals from cells treated with scrambled siRNA (Ambion) which served as a control.

293_GP46-GFP cell line = type: cell-based, human
Experimental: as §2, §3

rat gp46 [4] = assay: Inhibitory efficiency of siHsp47 in 293_GP46-GFP reporter cell line (GFP fluorescence); type: cell-based; conditions: 293_GP46-GFP cell line, normalized to scrambled siRNA
Excerpt: as §1

HSP47 protein = assay: siHsp47 knock down effect at the protein level in hTERT cells (western blot); type: cell-based, human; conditions: hTERT cell lysate
Experimental: The inhibitory effect of different Hsp47 siNA molecules (siHsp47) on hsp47 mRNA expression were validated at the protein level by measuring the HSP47 in hTERT cells transfected with different siHsp47. Transfection of hTERT cells with different siHsp47 were performed as described in Example 13. Transfected hTERT cells were lysed and the cell lysate were clarified by centrifugation. Proteins in the clarified cell lysate were resolved by SDS polyacrylamide gel electrophoresis. The level of HSP47 protein in the cell lysate were determined using an anti-HSP47 antibody (Assay Designs) as the primary antibody, Goat anti-mouse IgG conjugated with HRP (Millipore) as the secondary antibody, and subsequently detected by Supersignal West Pico Chemiluminescence kit (Pierce). Anti-actin antibody (Abcam) was used as a protein loading control.

hsp47 mRNA = assay: siHsp47 inhibitory effect on hsp47 mRNA by TaqMan qPCR in hTERT cells; type: cell-based, human; conditions: 72 hours after transfection, normalized to GAPDH
Experimental: In Example 14, the knock down efficiency of siHsp47s in reporter cell lines was evaluated by change in fluorescent signal. To validate the results at the mRNA level, siRNAs targeting endogenous hsp47 were transfected into cells of the human HSC cell line hTERT using Lipofectamine RNAiMAX (Invitrogen) in a reverse transfection manner as described in Example 13
The hsp47 mRNA level was evaluated for knock down efficiency of the various tested siHsp47 siNA molecules. Briefly, mRNA were isolated from hTERT cells after 72 hours after transfection using an RNeasy mini kit (Qiagen). The level of hsp47 mRNA was determined by reverse transcription coupled with quantitative PCR using TaqMan® probes. Briefly, cDNA synthesis was carried out using High-Capacity cDNA Reverse Transcription Kit (ABI) according to the manufacturer's instruction, and subjected to TaqMan Gene Expression Assay (ABI, hsp47). The level of hsp47 mRNA was normalized to the level of GAPDH mRNA according to the manufacturer's instruction (ABI).

293_HSP47-GFP cell line [5] = assay: Cell viability of 293_HSP47-GFP cells treated with siNA (CellTiter-Glo); conditions: normalized to scrambled siRNA
Experimental: as §2, §3

collagen I mRNA = assay: Downregulation of collagen I expression by hsp47 siRNA in hTERT cells (TaqMan qPCR); type: cell-based, human; conditions: 72 hours, normalized to GAPDH and scrambled siNA
Experimental: To determine the effect of siHsp47 on collagen I expression level, collagen I mRNA level in hTERT cells treated with different siRNA against hsp47 was measured. Briefly, hTERT cells were transfected with different siHsp47 as described in Example 13. The cells were lysed after 72 hours and mRNA were isolated using RNeasy mini kit according to the manual (Qiagen). The level of collagen 1 mRNA was determined by reverse transcription coupled with quantitative PCR using TaqMan® probes. Briefly, cDNA synthesis was carried out using High-Capacity cDNA Reverse Transcription Kit (ABI) according to the manual, and subjected to TaqMan Gene Expression Assay (ABI, COL 1A1 assay). The level of collagen I mRNA was normalized to the level of GAPDH mRNA according to the manufacturer's instruction (ABI). The signals were normalized to the signal obtained from cells transfected with scrambled siNA.

Row | Substance | cell viability / cytotoxicity (293_HSP47-GFP cell line [3]) | knockdown of human HSP47 (GFP fluorescent signal) (human HSP47) | cell viability / cytotoxicity (293_GP46-GFP cell line) | knockdown of rat GP46 (GFP fluorescent signal) (rat gp46 [4]) | level of Hsp47 protein (HSP47 protein) | knock down of hsp47 mRNA (remaining mRNA level) (hsp47 mRNA) | cell viability / cytotoxicity (293_HSP47-GFP cell line [5]) | collagen I mRNA level (collagen I mRNA) | other results
1 | Sequence A: siRNA for rat gp46, GUUCCACCAUAAGAUGGUAGACAAC (SEQ ID NO: 2728) (chemistry not given here) | – | – | – | – | – | – | – | – | inhibition of gp46 expression, dependence on concentration (rat gp46 [1]; 0.1 nM to 50 nM siRNA): concentration dependent; inhibition of gp46 protein expression (rat gp46 [1]; 50 nM siRNA, 48 hours): about 90%; expression of gp46 protein (western blot) (rat gp46 [1]; 24 hour culturing, examination of optimal sequence, compared with vehicle): strongest effect; decrease of collagen synthesis ratio [2]: about 40%
2 | siHsp47-C: siRNA to human and rat hsp47, 19mer duplex, dTdT overhangs; sense GGACAGGCCUCUACAACUAdTdT (SEQ ID NO 5/6) (sense GGACAGGCCUCUACAACUATT; antisense UAGUUGUAGAGGCCUGUCCTT; sugars from the 5' end r19 d2, backbone not given here) | without substantial cytotoxicity | efficiently knockdown | without substantial cytotoxicity | efficiently knockdown | significant decrease | most effective | – | – | –
3 | siHsp47-6: siRNA to human hsp47 cDNA 446-464, 19-mer duplex; SEQ ID NO 53/54 (chain 1 GCAGCAAGCAGCACUACAAUU; chain 2 UUGUAGUGCUGCUUGCUGCUU; chemistry not fully specified) | – | – | – | – | – | – | lower | – | –
4 | siHsp47-2d: siRNA to human hsp47 cDNA 469-493, 25-mer duplex; sense GAGCACUCCAAGAUCAACUUCCGdCdG (SEQ ID NO 25/26) (sense GAGCACUCCAAGAUCAACUUCCGCG; antisense GCGGAAGUUGAUCUUGGAGUGCUCUU; sense: sugars from the 5' end r23 d2, backbone not given here; antisense: chemistry not given here) | without substantial cytotoxicity | efficiently knockdown | without substantial cytotoxicity | efficiently knockdown | significant decrease | next most effective | – | significantly reduced | –
5 | siHsp47-2: siRNA to human hsp47 cDNA 469-487, 19-mer duplex; sense GAGCACUCCAAGAUCAACUdTdT (SEQ ID NO 21/22) (sense GAGCACUCCAAGAUCAACUTT; antisense AGUUGAUCUUGGAGUGCUCTT; sugars from the 5' end r19 d2, backbone not given here) | without substantial cytotoxicity | efficiently knockdown | without substantial cytotoxicity | efficiently knockdown | – | next most effective | – | significantly reduced | –
6 | Hsp47-7: siRNA to human hsp47 cDNA 692-710, 19-mer duplex; SEQ ID NO 57/58 (chain 1 CCGUGGGUGUCAUGAUGAUUU; chain 2 AUCAUCAUGACACCCACGGUU; chemistry not fully specified) | – | – | – | – | – | – | lower | – | –
